Measured values taken from patent publication US9029396B2, “Substituted indole derivatives” (Novartis AG, priority 2011, dated 2015).

Tests used:
[1] = Dog pharmacokinetics after oral administration of compound of example No. 1; assay type: in vivo, Beagle dogs
Method: A single dose of the compound of example 1 (3.0 mg/kg) was administered p.o. to 3 male Beagle dogs. Compound 1 was dosed as an aqueous suspension of the crystalline monohydrate form in Methylcellulose (0.5%): Tween 80 (1%) (90:10). Blood was taken in regular intervals by venipuncture, and the samples were analyzed for a period of up to 24 hours. The compounds of the examples 1, 2, and 3 were quantitatively assessed over time, and the results are tabulated below:
Key pharmacokinetic parameters (mean values±standard deviations (n=3) for 1, 2 and 3 after oral dosing of example No. 1.

PKC-alpha = molecular target: T1, PKC-alpha (Homo sapiens, UniProt P17252); test: Protein kinase C alpha assay (Caliper mobility shift); assay type: biochemical; settings: full length human recombinant enzyme, 17 μM ATP; read-out: PKCα (IC50 in nM)
T1 construct: Both enzymes were full length human recombinant protein expressed in insect cells; purchased Invitrogen AG, Basel, Switzerland; host or cells: insect cells
Method: (§1) The compounds of the invention were tested for their activity on different PKC isotypes according to the following method. All assays were performed in 384 well microtiter plates. Each assay plate contained 8-point serial dilutions for 40 test compounds, as well as two 16-point serial dilutions of staurosporine as reference compound, plus 16 high- and 16 low controls. Liquid handling and incubation steps were done on a automated workstation equipped with a Innovadyne Nanodrop Express.
(§2) The assay plates were prepared by addition of 50 nL per well of compound solution in 90% DMSO. The kinase reactions were started by stepwise addition of 4.5 μl per well of a 2× peptide/ATP-solution and 4.5 μl per well of a 2× enzyme solution. The final concentration of reagents during kinase reaction were: 50 mM HEPES, pH 7.5, 1 mM DTT, 0.02% Tween20, 0.02% BSA, 0.6% DMSO, 10 mM beta-glycerophosphate, and 10 μM sodium orthovanadate. The peptide substrate used in the PKC-alpha and PKC-theta assays was Dy495-X5-ME-Mpr-RFARKGSLRQKNV-COOH. […]
(§3) Plates with terminated kinase reactions were transferred to the Caliper LC3000 workstations for reading. Phosphorylated and unphosphorylated peptides were separated using the Caliper microfluidic mobility shift technology and Kinase activities were calculated from the amounts of formed phospho-peptide.

PKC-theta = molecular target: T2, PKC-theta (Homo sapiens, UniProt Q04759); test: Protein kinase C theta assay (Caliper mobility shift); assay type: biochemical; settings: full length human recombinant enzyme, 70 μM ATP; read-out: PKCθ (IC50 in nM)
T2 construct: Both enzymes were full length human recombinant protein expressed in insect cells; purchased Invitrogen AG, Basel, Switzerland; host or cells: insect cells
Method: as §1, §2, §3

[2] = Chemical stability of amorphous and crystalline solid; assay type: physicochemical; settings: 1 week
[3] = Stability in gastric and intestinal simulated fluids at 37° C.; assay type: physicochemical
Method: Stability Assessments Stability of Cpd. Example No. 1 in Gastric and Intestinal Simulated Fluids at 37° C.:
Stability of compound Example No. 3
(Free form/acetate salt form) in gastric and intestinal simulated fluids at 37° C.: […]

[4] = dog, blood, po, male Beagle dogs, example 1 3.0 mg/kg p.o.

T2 sequence (Q04759 whole entry): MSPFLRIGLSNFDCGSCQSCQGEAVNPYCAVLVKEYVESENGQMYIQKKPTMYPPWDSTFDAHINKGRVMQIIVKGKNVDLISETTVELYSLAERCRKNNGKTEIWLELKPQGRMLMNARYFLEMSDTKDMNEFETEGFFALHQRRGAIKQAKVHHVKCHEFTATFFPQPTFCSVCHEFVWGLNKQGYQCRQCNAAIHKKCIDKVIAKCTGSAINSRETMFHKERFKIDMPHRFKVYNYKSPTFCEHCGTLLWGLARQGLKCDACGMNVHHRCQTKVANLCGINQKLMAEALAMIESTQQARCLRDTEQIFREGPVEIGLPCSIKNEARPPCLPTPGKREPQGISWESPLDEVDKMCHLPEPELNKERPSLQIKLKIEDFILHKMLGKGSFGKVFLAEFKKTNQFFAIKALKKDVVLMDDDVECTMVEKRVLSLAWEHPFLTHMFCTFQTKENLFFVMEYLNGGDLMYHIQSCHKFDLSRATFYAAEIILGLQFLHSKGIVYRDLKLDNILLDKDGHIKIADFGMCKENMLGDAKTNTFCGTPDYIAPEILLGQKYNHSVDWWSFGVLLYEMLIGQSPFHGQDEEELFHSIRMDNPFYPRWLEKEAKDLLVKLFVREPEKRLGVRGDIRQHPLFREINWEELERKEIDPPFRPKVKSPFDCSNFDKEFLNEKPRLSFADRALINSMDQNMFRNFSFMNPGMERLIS

Compound: Cc1cccc2c(C3=C(c4nc(N5CCNC6(CC6)C5)cc5ccccc45)C(=O)N(COP(=O)(O)O)C3=O)c[nH]c12 [Example 1, Phosphoric acid mono-[3-[3-(4,7-diaza-spiro[2.5]oct-7-yl)-isoquinolin-1-yl]-4-(7-methyl-1H-indol-3-yl)-2,5-dioxo-2,5-dihydro-pyrrol-1-ylmethyl]ester]
- Conversion of prodrug into parent compound in blood ([1]; after administration, example 3 is main component in blood after around an hour): is converted into compound of example 3
- concentration at 0.25 h [1, 4]: 3.1 nM
- concentration at 0.5 h [1, 4]: 1.1 nM
- IC50 (PKC-alpha): 1680 nM
- IC50 (PKC-theta): 462 nM
- Purity after exposure ([2]; Amorphous, initial purity 98.5 %, 50 ° C.): 95.8%
- Purity after exposure ([2]; Amorphous, initial purity 98.5 %, 80 ° C.): 89.7%
- Purity after exposure ([2]; Crystalline mono-hydrate, initial purity 100 %, 50 ° C.): 100%
- Purity after exposure ([2]; Crystalline mono-hydrate, initial purity 100 %, 80 ° C.): 100%
- Amount in Area % of compound example No. 1 ([3]; FaSSIF pH 6.5, 37° C., 0 hours): 95.1 Area %
- Amount in Area % of compound example No. 1 ([3]; FaSSIF pH 6.5, 37° C., 1 hours): 93.8 Area %
- Amount in Area % of compound example No. 1 ([3]; FaSSIF pH 6.5, 37° C., 2.5 hours): 92.3 Area %
- Amount in Area % of compound example No. 1 ([3]; FaSSIF pH 6.5, 37° C., 4.2 hours): 90.5 Area %
- Amount in Area % of compound example No. 1 ([3]; FaSSIF pH 6.5, 37° C., 7 hours): 87.7 Area %
- Amount in Area % of compound example No. 1 ([3]; FeSSIF pH 5.8, 37° C., 0 hours): 95.0 Area %
- Amount in Area % of compound example No. 1 ([3]; FeSSIF pH 5.8, 37° C., 1 hours): 94.9 Area %
- Amount in Area % of compound example No. 1 ([3]; FeSSIF pH 5.8, 37° C., 2.5 hours): 94.8 Area %
- Amount in Area % of compound example No. 1 ([3]; FeSSIF pH 5.8, 37° C., 4.2 hours): 94.8 Area %
- Amount in Area % of compound example No. 1 ([3]; FeSSIF pH 5.8, 37° C., 7 hours): 94.8 Area %
- Amount in Area % of compound example No. 1 ([3]; SGF pH 2, 37° C., 0 hours): 95.9 Area %
- Amount in Area % of compound example No. 1 ([3]; SGF pH 2, 37° C., 1 hours): 95.5 Area %
- Amount in Area % of compound example No. 1 ([3]; SGF pH 2, 37° C., 2.5 hours): 95.3 Area %
- Amount in Area % of compound example No. 1 ([3]; SGF pH 2, 37° C., 4.2 hours): 95.6 Area %
- Amount in Area % of compound example No. 1 ([3]; SGF pH 2, 37° C., 7 hours): 95.6 Area %

Compound: Cc1cccc2c(C3=C(c4nc(N5CCNC6(CC6)C5)cc5ccccc45)C(=O)N(CO)C3=O)c[nH]c12 [Example 2, 3-[3-(4,7-Diaza-spiro[2.5]oct-7-yl)-isoquinolin-1-yl]-1-hydroxymethyl-4-(7-methyl-1H-indol-3-yl)-pyrrole-2,5-dione]
- concentration at 0.083 h ([1]; dog, blood, po, male Beagle dogs, example 1 3.0 mg/kg p.o. (crystalline monohydrate suspension), 0.083 h): 10 nM
- concentration at 0.25 h [1, 4]: 39.6 nM
- concentration at 0.5 h [1, 4]: 31.3 nM
- concentration at 0.75 h ([1]; dog, blood, po, male Beagle dogs, example 1 3.0 mg/kg p.o., 0.75 h): 19.1 nM
- concentration at 1 h ([1]; dog, blood, po, male Beagle dogs, example 1 3.0 mg/kg p.o., 1 h): 6.3 nM
- concentration at 2 h ([1]; dog, blood, po, male Beagle dogs, example 1 3.0 mg/kg p.o., 2 h): 7.7 nM
- concentration at 3 h ([1]; dog, blood, po, male Beagle dogs, example 1 3.0 mg/kg p.o., 3 h): 1 nM
- AUC d.n. ([1]; dose normalized, mean ± SD (n=3), after oral dosing of example No. 1 to dogs): low
- Tmax ([1]; male, Beagle, dog, blood, 3 mg/kg, mean ± SD (n=3), after oral dosing of example No. 1 to dogs): 24 ± 6 min
